Assay results as given in patent US20250042922A1, “KRAS MODULATING COMPOUNDS” (priority 2023, published 2025).
Where two headings read alike, the source gives them in different places.

What was measured:
[1] = biological target: GDP-loaded wild-type KRAS (WT) (Homo sapiens, UniProt P01116); assay: KRAS (GDP) biochemical TR-FRET probe displacement assay, WT; format: binding; conditions: 2 hours
Procedure: (§1) Compounds are tested for binding to GDP-loaded wild-type KRAS (WT), KRAS-G12C, KRAS-G12D, and KRAS-G12V in a 384-well assay format using a TR-FRET probe displacement assay in buffer consisting of 50 mM Hepes (pH 7.4), 150 mM NaCl, 5 mM MgCl2 and 0.005% Tween-20. […] Compounds are serially diluted (1:3) in DMSO. The LabCyte ECHO Acoustic dispenser was used to pre-spot the assay plates (384-well Non-Binding Surface plates, Corning, Catalog #3824) with 50 nL of compound. 5 μL of 2X enzyme concentration is added to the pre-spotted plates and incubated for 30 minutes before adding 5 μL of 2X concentration of Eu-streptavidin and Cy-5 labelled probe (10 μL final reaction volume). The plates are incubated at room temperature for 2 hours before measuring TR-FRET ratio (665 nm/615 nm) on the Envision multimode plate reader. The ratios are normalized to a positive (saturating concentration of known inhibitor) and negative (DMSO) control and plotted against the log of compound concentration.

[2] = biological target: GDP-loaded KRAS-G12C (Homo sapiens, UniProt P01116, G12C); assay: KRAS (GDP) biochemical TR-FRET probe displacement assay, G12C; format: binding; conditions: 2 hours
GDP-loaded KRAS-G12C, sequence (P01116 1-188 isoform P01116-2 G12C): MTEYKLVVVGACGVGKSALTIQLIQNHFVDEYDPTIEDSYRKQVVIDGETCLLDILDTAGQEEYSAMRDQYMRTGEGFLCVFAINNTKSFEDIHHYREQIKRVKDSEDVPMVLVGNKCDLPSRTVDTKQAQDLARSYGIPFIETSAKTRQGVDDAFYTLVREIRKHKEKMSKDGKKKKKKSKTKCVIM
Procedure: as §1

[3] = biological target: GDP-loaded KRAS-G12V (Homo sapiens, UniProt P01116, G12V); assay: KRAS (GDP) biochemical TR-FRET probe displacement assay, G12V; format: binding; conditions: 2 hours
GDP-loaded KRAS-G12V, sequence (P01116 1-188 isoform P01116-2 G12V): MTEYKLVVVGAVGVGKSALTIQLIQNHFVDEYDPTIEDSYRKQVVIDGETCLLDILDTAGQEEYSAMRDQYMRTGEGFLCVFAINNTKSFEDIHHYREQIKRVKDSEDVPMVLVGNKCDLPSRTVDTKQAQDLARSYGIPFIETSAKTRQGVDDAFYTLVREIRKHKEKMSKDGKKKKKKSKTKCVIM
Procedure: as §1

[4] = biological target: GDP-loaded KRAS-G12D (Homo sapiens, UniProt P01116, G12D); assay: KRAS (GDP) biochemical TR-FRET probe displacement assay, G12D; format: binding; conditions: 2 hours
GDP-loaded KRAS-G12D, sequence (P01116 1-188 isoform P01116-2 G12D): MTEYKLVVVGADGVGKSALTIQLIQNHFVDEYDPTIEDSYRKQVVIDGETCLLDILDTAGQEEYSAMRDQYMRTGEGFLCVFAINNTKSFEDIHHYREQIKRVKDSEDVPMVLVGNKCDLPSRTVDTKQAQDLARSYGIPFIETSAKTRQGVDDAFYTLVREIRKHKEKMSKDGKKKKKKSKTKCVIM
Procedure: as §1

[5] = system: cellular pERK in Kuramochi (WT KRAS) cells; assay: Cell based pERK assay, Kuramochi; conditions: read-out: Kuramochi pERK EC50
Summary of the method: (§2)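 Cells seeded overnight (5000 AsPC-1 or 7500 others per well; RPMI/10% FBS, DMEM/10% FBS for MIA-PaCa-2), treated with 1:3 serial dilutions for 2 h at 37 °C. Phospho-ERK1/2 (Thr202/Tyr204) measured by HTRF (665/615 nm) after overnight lysis, normalized to DMSO and saturating known-inhibitor controls.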

[6] = system: cellular pERK in MIA-PaCa-2 (KRAS-G12C) cells; assay: Cell based pERK assay, MIA-PaCa-2; conditions: Homo sapiens, read-out: MIAPaCa2 pERK EC50
Summary of the method: as §2

[7] = system: cellular pERK in NCI-H441 (KRAS-G12V) cells; assay: Cell based pERK assay, NCI-H441; conditions: Homo sapiens, read-out: H441 PERK EC50
Summary of the method: as §2

[8] = system: cellular pERK in ASPC-1 (KRAS G12D) cells; assay: Cell based pERK assay, ASPC-1; conditions: Homo sapiens, read-out: AsPC1 pERK EC50
Summary of the method: as §2

[9] = Kuramochi (WT KRAS), 2 hours incubation, HTRF phospho-ERK1/2
[10] = MIA-PaCa-2 (KRAS-G12C), 2 hours incubation, HTRF phospho-ERK1/2
[11] = NCI-H441 (KRAS-G12V), 2 hours incubation, HTRF phospho-ERK1/2
[12] = ASPC1, ASPC-1 (KRAS G12D), 2 hours incubation, HTRF phospho-ERK1/2

GDP-loaded wild-type KRAS (WT), sequence (P01116 1-188 isoform P01116-2): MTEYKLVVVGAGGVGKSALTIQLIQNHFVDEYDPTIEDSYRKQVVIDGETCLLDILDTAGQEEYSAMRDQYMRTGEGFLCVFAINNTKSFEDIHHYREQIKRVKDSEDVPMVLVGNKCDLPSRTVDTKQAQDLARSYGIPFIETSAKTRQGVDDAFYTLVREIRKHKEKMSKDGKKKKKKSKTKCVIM

Structure (SMILES)	IC50 [1] [nM]	IC50 [2] [nM]	IC50 [3] [nM]	IC50 [4] [nM]	EC50 [5, 9] [nM]	EC50 [6, 10] [nM]	EC50 [7, 11] [nM]	EC50 [8, 12] [nM]	EC50 ([5]; 2 h) [nM]	EC50 ([6]; MIA PaCa-2, 2 h) [nM]	EC50 ([7]; NCI-H441, 2 h) [nM]	EC50 ([8]; ASPC1, 2 h) [nM]
C/C=C\c1c(Cl)cc2[nH]ncc2c1-c1nc2c3c(nc(OCC45CCCN4CCC5)nc3c1F)N1C[C@@]3(F)CC[C@](F)(N3)[C@H]1CCC2 [Example 4-26, (4S,7R,8R)-14-[6-chloro-5-[(Z)-prop-1-enyl]-1H-indazol-4-yl]-4,7,15-trifluoro-18-(1,2,3,5,6,7-hexahydropyrrolizin-8-ylmethoxy)-2,13,17,19,21-pentazapentacyclo[10.7.1.14,7.02,8.016,20]henicosa-1(19),12(20),13,15,17-pentaene]	1.85	1.24	4.33	6.69	4.34	0.785	31.4	45.4	–	–	–	–
N#Cc1c(N)sc2c(F)ccc(-c3nc4c5c(nc(OC[C@@]67CCCN6C[C@H](F)C7)nc5c3F)N3C[C@@]5(F)CC[C@](F)(N5)[C@@H]3CC4)c12 [Example 4-21, 2-amino-7-fluoro-4-((5aS,6R,9S)-1,6,9-trifluoro-12-(((2R,7aS)-2-fluorotetrahydro-1H-pyrrolizin-7a(5H)-yl)methoxy)-4,5,5a,6,7,8,9,10-octahydro-3,10a,11,13,14-pentaaza-6,9-methanonaphtho[1,8-ab]heptalen-2-yl)benzo[b]thiophene-3-carbonitrile]	0.18	0.363	0.844	2.32	1.73	0.313	1.1	5.96	–	–	–	–
C[C@H]1Cc2nc(-c3cc(O)cc4ccc(F)c(Cl)c34)c(F)c3nc(OCC45CCCN4CCC5)nc(c23)N2C[C@@]3(F)CC[C@](F)(N3)[C@H]12 [Example 4-30, 5-chloro-6-fluoro-4-((5S,5aS,6R,9S)-1,6,9-trifluoro-5-methyl-12-((tetrahydro-1H-pyrrolizin-7a(5H)-yl)methoxy)-4,5,5a,6,7,8,9,10-octahydro-3,10a,11,13,14-pentaaza-6,9-methanonaphtho[1,8-ab]heptalen-2-yl)naphthalen-2-ol]	0.092	0.194	0.405	0.869	1.94	0.365	4.88	18	–	–	–	–
Cc1c(F)c(N)cc(-c2nc3c4c(nc(OC[C@@]56CCCN5C[C@H](F)C6)nc4c2F)N2C[C@@]4(F)CC[C@](F)(N4)[C@H]2CCC3)c1C(F)(F)F [Example 4-4]	25.8	46.7	45.1	> 100	15.4	59.4	884	175	–	–	–	–
C#Cc1c(F)c(F)cc2cc(N)cc(-c3nc4c5c(nc(OCC67CCCN6CCC7)nc5c3F)N3C[C@@]5(F)CC[C@](F)(N5)[C@@H]3[C@@H](C)C4)c12 [Example 5-7, 5-ethynyl-6,7-difluoro-4-((5S,5aS,6R,9S)-1,6,9-trifluoro-5-methyl-12-((tetrahydro-1H-pyrrolizin-7a(5H)-yl)methoxy)-4,5,5a,6,7,8,9,10-octahydro-3,10a,11,13,14-pentaaza-6,9-methanonaphtho[1,8-ab]heptalen-2-yl)naphthalen-2-amine]	0.116	0.311	0.723	1.03	2.75	0.378	3.1	12.4	–	–	–	–
Cn1ccc2cc(N)cc(-c3nc4c5c(nc(OCC67CCCN6CCC7)nc5c3F)N3C[C@@]5(F)CC[C@](F)(N5)[C@H]3CCC4)c2c1=O [Example 4-25]	> 100	> 100	> 100	> 100	> 1000	> 1000	> 1000	> 1000	–	–	–	–
C[C@H]1Cc2nc(-c3cc(O)cc4ccc(F)c(F)c34)c(F)c3nc(OCC45CCCN4CCC5)nc(c23)N2C[C@@]3(F)CC[C@](F)(N3)[C@H]12 [Example 4-12, 5,6-difluoro-4-((5S,5aS,6R,9S)-1,6,9-trifluoro-5-methyl-12-((tetrahydro-1H-pyrrolizin-7a(5H)-yl)methoxy)-4,5,5a,6,7,8,9,10-octahydro-3,10a,11,13,14-pentaaza-6,9-methanonaphtho[1,8-ab]eptalene-2-yl)naphthalen-2-ol]	0.086	0.172	0.353	1.16	–	–	–	–	1.71	0.944	3.7	29
N#Cc1c(N)sc2c(F)ccc(-c3nc4c5c(nc(OCC67CCCN6CCC7)nc5c3F)N3C[C@@]5(F)CC[C@](F)(N5)[C@H]3CCC4)c12 [Example 4-7, 2-amino-7-fluoro-4-((6aR,7R,10S)-1,7,10-trifluoro-13-((tetrahydro-1H-pyrrolizin-7a(5H)-yl)methoxy)-5,6,6a,7,8,9,10,11-octahydro-4H-3,11a,12,14,15-pentaaza-7,10-methanocyclohepta[4,5]cycloocta[1,2,3-de]naphthalen-2-yl)benzo[b]thiophene-3-carbonitrile]	10.1	28.5	44.1	86.8	15.6	59.8	–	840	–	–	–	–
CCC1CCCc2cc(N)cc(-c3nc4c5c(nc(OCC67CCCN6CCC7)nc5c3F)N3C[C@@]5(F)CC[C@](F)(N5)[C@H]3CCC4)c21 (stereo partly drawn) [Example 4-24, 5-ethyl-4-((6aR,7R,10S)-1,7,10-trifluoro-13-((tetrahydro-1H-pyrrolizin-7a(5H)-yl)methoxy)-5,6,6a,7,8,9,10,11-octahydro-4H-3,11a,12,14,15-pentaaza-7,10-methanocyclohepta[4,5]cycloocta[1,2,3-de]naphthalen-2-yl)-5,6,7,8-tetrahydronaphthalen-2-amine]	> 100	> 100	> 100	> 100	312	560	–	> 1000	–	–	–	–
C[C@H]1Cc2nc(-c3ccc(F)c4sc(N)c(C#N)c34)c(F)c3nc(OCC45CCCN4CCC5)nc(c23)N2C[C@@]3(F)CC[C@](F)(N3)[C@H]12 [Example 4-14, 2-amino-7-fluoro-4-((5S,5aS,6R,9S)-1,6,9-trifluoro-5-methyl-12-((tetrahydro-1H-pyrrolizin-7a(5H)-yl)methoxy)-4,5,5a,6,7,8,9,10-octahydro-3,10a,11,13,14-pentaaza-6,9-methanonaphtho[1,8-ab]heptalen-2-yl)benzo[b]thiophene-3-carbonitrile]	0.321	0.534	0.537	1.15	10.6	1.15	5.29	40.2	–	–	–	–
C[C@H]1Cc2nc(-c3cc(N)cc4ccc(F)c(Cl)c34)c(F)c3nc(OCC45CCCN4CCC5)nc(c23)N2C[C@@]3(F)CC[C@](F)(N3)[C@H]12 [Example 5-3]	0.266	1.55	2.96	7.83	1.45	0.897	9.64	31.3	–	–	–	–
C[C@H]1Cc2nc(-c3cc(N)cc(Cl)c3C(F)(F)F)c(F)c3nc(OCC45CCCN4CCC5)nc(c23)N2C[C@@]3(F)CC[C@](F)(N3)[C@H]12 [Example 4-17, 3-chloro-5-((8S,8aS,9R,12S)-4,9,12-trifluoro-8-methyl-2-((tetrahydro-1H-pyrrolizin-7a(5H)-yl)methoxy)-7,8,8a,9,10,11,12,13-octahydro-1,3,6,13a,14-pentaaza-9,12-methanonaphtho[1,8-ab]heptalen-5-yl)-4-(trifluoromethyl)aniline]	0.161	0.479	0.865	2.79	4.32	1.72	–	38	–	–	–	–
